According to patent US4461899A, “Fluorenecarboxylic acid derivatives” (Diamond Shamrock Chemicals Company, priority 1982, dated 1984):
“Also recorded” adds a separate entry of the source. Structures can show the parent of a compound that is named as a salt.

Legend:
Assay type in all cases: in vivo
[1] = test system: soybean plants; assay: Soybean yield after foliar spray at early flowering stage; settings: for Yield Improvement %: vs control
Source text: Two 50 cm rows of soybean plants at the early flowering stage were sprayed with 100 ppm or 500 ppm of the cis-2,5-dimethylpyrrolidine salt of 9-fluorenecarboxylic acid, using a spray volume of about 375 liters/hectare (40 gallons/acre). For comparison, other rows were sprayed with like concentrations of two known compounds as designated below. Also 2 untreated rows were maintained to serve as a control: each of the plots was weeded by hand as needed. At maturity, each plot was harvested and the yield was determined.

[2] = test system: field grown tomato plants; assay: Overall yield and fruit size of field grown tomatoes; settings: for tomato yield / fruit size, in words: 10, 50 and 500 ppm, Example 1 decrease at 500 ppm; for Fruit Size, Green (% of Control): control 104.0 g; for Fruit Size, Red (% of Control): control 105.5 g
Source text: This example illustrates the effects of compounds of this invention on overall yield of tomatoes. For the test, field grown tomato plants, when in the early flowering stage, were foliage sprayed with the particular compounds of the invention designated below, and with the commercial product CF-125 (Maintain), at rates of 10, 50 and 500 ppm. These rates correspond to applications of 3.69 g, 18.54 g and 185.4 g/hectare, respectively. Each treatment consisted of five plants; the experimental design was a complete randomized block with three replications. A block of untreated plants was included as the control. The fruit was harvested by hand and separated into […] ripe fruit and marketable green fruit.

[3] = test system: "Walter" variety tomato plants; assay: Yield of "Walter" variety tomatoes, weekly harvest of mature red fruit; settings: for Total Fruit / Total Fruit, % of Control: weeks 1-6
Source text: Compounds of this invention were further tested as tomato yield enhancers as follows:
"Walter" variety tomato plants, in the early flowering stage, were foliage sprayed at a rate of 68.8 liters/hectare with compounds of this invention, and with the commercial product, CF-125. Each plot consisted of 20 plants; the experimental design was a completed randomized block with three replications. A plot of untreated plants was included as a control. Marketable, mature red tomatoes were harvested weekly, beginning 5 weeks after treatment.

[4] = test system: field grown tomato plants; assay: Fruit set and phytotoxicity in field grown tomato plants; settings: for Increase Over Control (%) of fruit set: 24 days; for Fruit Set Per Plant (After 24 days) / Phytotoxicity: 24 days after treatment; for Increase (%) of fruit set: initial to 24 days
Source text: To determine fruit set effects by compounds of this invention, field grown tomato plants were foliage sprayed with the cis-2,5-dimethylpyrrolidine salt of […], 9-cis-2,5-dimethyl-1-pyrrolidinyl-2-chlorofluorene-9-carboxylic acid, methyl ester, and the commercial plant growth regulant, MAINTAIN CF-125 (methyl-2-chloro-9hydroxyfluorene-9-carboxylate, manufactured by U.S. Borax and Chemical Corp.). Rates of application employed were 5, 25, and 100 ppm when the tomato plants were in the late blooming to early fruit setting stage. Untreated plants were included in the test as controls. Five plants were sprayed for each chemical treatment. The number of fruit set and the degree of phytotoxicity to the plants were determined 24 days after treatment.

O=C(O)c1cccc2c1Cc1ccccc1-2 [1-fluorenecarboxylic acid]
Yield (Kilograms) × 10^2 ([1]; 100 ppm): 17.16 Kilograms × 10^2
Yield Improvement % ([1]; 100 ppm): -2.7%
Yield (Kilograms) × 10^2 ([1]; 500 ppm): 17.34 Kilograms × 10^2
Yield Improvement % ([1]; 500 ppm): -1.5%

O=C(O)C1c2ccccc2-c2ccccc21 [9-fluorenecarboxylic acid]
Yield (Kilograms) × 10^2 ([1]; 100 ppm): 18.93 Kilograms × 10^2
Yield Improvement % ([1]; 100 ppm): 7.3%
Yield (Kilograms) × 10^2 ([1]; 500 ppm): 19.02 Kilograms × 10^2
Yield Improvement % ([1]; 500 ppm): 7.5%

O=C(O)c1cccc2c1Cc1ccccc1-2 [Example 3, 2,6-Dimethyl piperidine salt of fluorene-1-carboxylic acid]
tomato yield / fruit size, in words [2]: increased the yield of red fruit at all rates of application; also recorded: increasing the size of the fruit
Fruit Yield, Green (% of Control) ([2]; 10 ppm): 45 % of Control
Fruit Yield, Red (% of Control) ([2]; 10 ppm): 119 % of Control
Total Yield (% of Control) ([2]; 10 ppm): 70 % of Control
Fruit Size, Green (% of Control) ([2]; 10 ppm): 137 % of Control
Fruit Size, Red (% of Control) ([2]; 10 ppm): 161 % of Control
Fruit Yield, Green (% of Control) ([2]; 50 ppm): 69 % of Control
Fruit Yield, Red (% of Control) ([2]; 50 ppm): 122 % of Control
Total Yield (% of Control) ([2]; 50 ppm): 128 % of Control
Fruit Size, Green (% of Control) ([2]; 50 ppm): 101 % of Control
Fruit Size, Red (% of Control) ([2]; 50 ppm): 165 % of Control
Fruit Yield, Green (% of Control) ([2]; 500 ppm): 86 % of Control
Fruit Yield, Red (% of Control) ([2]; 500 ppm): 127 % of Control
Total Yield (% of Control) ([2]; 500 ppm): 59 % of Control
Fruit Size, Green (% of Control) ([2]; 500 ppm): 83 % of Control
Fruit Size, Red (% of Control) ([2]; 500 ppm): 127 % of Control

COC(=O)C1(N2[C@H](C)CC[C@@H]2C)c2ccccc2-c2ccc(Cl)cc21 (stereo partly drawn) [Example 8, 9-cis-2,5-dimethyl-1-pyrrolidinyl-2-chlorofluorene-9-carboxylic acid, methyl ester]
tomato yield / fruit size, in words [2]: became inhibitory above the 50 ppm rate
Fruit Yield, Green (% of Control) ([2]; 10 ppm): 64 % of Control
Fruit Yield, Red (% of Control) ([2]; 10 ppm): 161 % of Control
Total Yield (% of Control) ([2]; 10 ppm): 97 % of Control
yield of red fruit over the control yield ([2]; 10 ppm): 61%
Fruit Size, Green (% of Control) ([2]; 10 ppm): 93 % of Control
Fruit Size, Red (% of Control) ([2]; 10 ppm): 82 % of Control
Fruit Yield, Green (% of Control) ([2]; 50 ppm): 26 % of Control
Fruit Yield, Red (% of Control) ([2]; 50 ppm): 93 % of Control
Total Yield (% of Control) ([2]; 50 ppm): 49 % of Control
Fruit Size, Green (% of Control) ([2]; 50 ppm): 46 % of Control
Fruit Size, Red (% of Control) ([2]; 50 ppm): 95 % of Control
Fruit Yield, Green (% of Control) ([2]; 500 ppm): 0 % of Control
Fruit Yield, Red (% of Control) ([2]; 500 ppm): 76 % of Control
Total Yield (% of Control) ([2]; 500 ppm): 26 % of Control
Fruit Size, Green (% of Control) ([2]; 500 ppm): 0 % of Control
Fruit Size, Red (% of Control) ([2]; 500 ppm): 67 % of Control
increased tomato yields above the yield of control plots ([3]; 5-10 ppm): 39-80%
Fruit Yield (kg/plot) ([3]; 5 ppm): 32.8 kg/plot
Total Yield Wt. % of Control ([3]; 5 ppm): 139.0 % of Control
Fruit harvested, Harvest Time (Week) 1 ([3]; 5 ppm): 11
Fruit harvested, Harvest Time (Week) 2 ([3]; 5 ppm): 109
Fruit harvested, Harvest Time (Week) 3 ([3]; 5 ppm): 103
Fruit harvested, Harvest Time (Week) 4 ([3]; 5 ppm): 168
Fruit harvested, Harvest Time (Week) 5 ([3]; 5 ppm): 208
Fruit harvested, Harvest Time (Week) 6 ([3]; 5 ppm): 286
Total Fruit ([3]; 5 ppm): 885
Total Fruit, % of Control ([3]; 5 ppm): 154 % of Control
Fruit Yield (kg/plot) ([3]; 10 ppm): 42.6 kg/plot
Total Yield Wt. % of Control ([3]; 10 ppm): 180.5 % of Control
Fruit harvested, Harvest Time (Week) 1 ([3]; 10 ppm): 13
Fruit harvested, Harvest Time (Week) 2 ([3]; 10 ppm): 123
Fruit harvested, Harvest Time (Week) 3 ([3]; 10 ppm): 126
Fruit harvested, Harvest Time (Week) 4 ([3]; 10 ppm): 240
Fruit harvested, Harvest Time (Week) 5 ([3]; 10 ppm): 306
Fruit harvested, Harvest Time (Week) 6 ([3]; 10 ppm): 296
Total Fruit ([3]; 10 ppm): 1104
Total Fruit, % of Control ([3]; 10 ppm): 192 % of Control
Fruit Yield (kg/plot) ([3]; 50 ppm): 15.4 kg/plot
Total Yield Wt. % of Control ([3]; 50 ppm): 65.3 % of Control
Fruit harvested, Harvest Time (Week) 1 ([3]; 50 ppm): 34
Fruit harvested, Harvest Time (Week) 2 ([3]; 50 ppm): 150
Fruit harvested, Harvest Time (Week) 3 ([3]; 50 ppm): 81
Fruit harvested, Harvest Time (Week) 4 ([3]; 50 ppm): 25
Fruit harvested, Harvest Time (Week) 5 ([3]; 50 ppm): 9
Fruit harvested, Harvest Time (Week) 6 ([3]; 50 ppm): 100
Total Fruit ([3]; 50 ppm): 399
Total Fruit, % of Control ([3]; 50 ppm): 69 % of Control
Increase Over Control (%) of fruit set ([4]; 5 ppm): 36%
Fruit Set Per Plant (After 24 days) ([4]; 5 ppm): 19.6
Phytotoxicity ([4]; 5 ppm): 0
Fruit Set Per Plant (Initial) ([4]; 5 ppm): 9.4
Increase (%) of fruit set ([4]; 5 ppm): 109%
Increase Over Control (%) of fruit set ([4]; 25 ppm): 9%
Fruit Set Per Plant (After 24 days) ([4]; 25 ppm): 18.6
Phytotoxicity ([4]; 25 ppm): 0
Fruit Set Per Plant (Initial) ([4]; 25 ppm): 10.2
Increase (%) of fruit set ([4]; 25 ppm): 82%
Increase Over Control (%) of fruit set ([4]; 100 ppm): -23%
Fruit Set Per Plant (After 24 days) ([4]; 100 ppm): 15.6
Fruit Set Per Plant (Initial) ([4]; 100 ppm): 10.4
Increase (%) of fruit set ([4]; 100 ppm): 50%

C[C@@H]1CC[C@H](C)N1.O=C(O)C1c2ccccc2-c2ccccc21 [Example 15, Cis-2,5-dimethylpyrrolidine salt of 9-fluorenecarboxylic acid]
soybean yield, in words ([1]; particularly at 500 ppm, over untreated control and fluorenecarboxylic acids): significantly enhances soybean yield over the untreated control plot and over plots treated with known morphactins
